ChEMBL document CHEMBL3046547, “Pyrethroid resistance in the tomato red spider mite, Tetranychus evansi, is associated with mutation of the para-type sodium channel” (2011)
Converted amounts (≈) assume the structure as drawn.

What was measured:
Assay type in all cases: functional
[1] = system: Tetranychus evansi; test: Insecticidal activity against Tetranychus evansi R1 in clean French bean leaf assessed as mortality at 26 degC and 16 hr day length measured after 48 hr by microimmersion protocol
[2] = system: Tetranychus urticae; test: Insecticidal activity against Tetranychus urticae (two-spotted spider mite)
[3] = system: Tetranychus evansi; test: Insecticidal activity against Tetranychus evansi ST JEA in clean French bean leaf assessed as mortality at 26 degC and 16 hr day length measured after 48 hr by microimmersion protocol
[4] = system: Tetranychus evansi; test: Insecticidal activity against Tetranychus evansi R2 in clean French bean leaf assessed as mortality at 26 degC and 16 hr day length measured after 48 hr by microimmersion protocol
[5] = system: Tetranychus evansi; test: Insecticidal activity against Tetranychus evansi TOR in clean French bean leaf assessed as mortality at 26 degC and 16 hr day length measured after 48 hr by microimmersion protocol
[6] = system: Tetranychus urticae; test: Insecticidal activity against Tetranychus urticae LS-VL (two-spotted spider mite)

Compound `CCOP(=S)(OCC)Oc1nc(Cl)c(Cl)cc1Cl` [CHLORPYRIFOS] has an LC50 [1] of 3780 µg/mL (≈ 10.8 mM), an LC50 [2] of 4 µg/mL (≈ 0.0114 mM) and an LC50 [3] of 3760 µg/mL (≈ 10.7 mM). The LC50 [4] was 4380 µg/mL (≈ 12.5 mM) and the LC50 [5] was 4530 µg/mL (≈ 12.9 mM).

`CC[C@H](C)[C@H]1O[C@]2(C=C[C@@H]1C)C[C@@H]1C[C@@H](C/C=C(\C)[C@@H](O[C@H]3C[C@H](OC)[C@@H](O[C@H]4C[C@H](OC)[C@@H](O)[C@H](C)O4)[C@H](C)O3)[C@@H](C)/C=C/C=C3\CO[C@@H]4[C@H](O)C(C)=C[C@@H](C(=O)O1)[C@]34O)O2.CO[C@H]1C[C@H](O[C@H]2[C@H](C)O[C@@H](O[C@@H]3/C(C)=C/C[C@@H]4C[C@@H](C[C@]5(C=C[C@H](C)[C@@H](C(C)C)O5)O4)OC(=O)[C@@H]4C=C(C)[C@@H](O)[C@H]5OC/C(=C\C=C\[C@@H]3C)[C@]54O)C[C@@H]2OC)O[C@@H](C)[C@@H]1O` [ABAMECTIN] was tested, and the LC50 [1] was 0.18 µg/mL, the LC50 [3] was 0.23 µg/mL and the LC50 [4] was 0.19 µg/mL. For the same compound, the LC50 [5] was 0.24 µg/mL.

For `Cc1c(COC(=O)[C@@H]2[C@H](/C=C(\Cl)C(F)(F)F)C2(C)C)cccc1-c1ccccc1` (relative stereo) [BIFENTHRIN], the LC50 [1] was 1860 µg/mL (≈ 4.39 mM), the LC50 [3] was 135 µg/mL (≈ 0.318 mM) and the LC50 [4] was 3560 µg/mL (≈ 8.42 mM). It also gave an LC50 [6] of 5.5 µg/mL (≈ 0.013 mM) and an LC50 [5] of 92 µg/mL (≈ 0.218 mM).
